Laboratory results reported in patent publication US5441941A, “1,2-dihydroellipticines with activity against CNS specific cancer” (The United States of America as represented by the …, priority 1993, dated 1995).

Tests used:
OVCAR-8 = assay: NCI in vitro screen, SRB percent growth, Ovarian Cancer
MALME-3M = assay: NCI in vitro screen, SRB percent growth, Melanoma
RXF-631 = assay: NCI in vitro screen, SRB percent growth, Renal Cancer
CAKI-1 = assay: as above
KM20L2 = assay: cells; conditions: Homo sapiens
K-562 = assay: NCI in vitro screen, SRB percent growth, Leukemia
Human tumor cell lines = assay: NCI in vitro screen, overall result; conditions: Tables I and II
OVCAR-5 = assay: NCI in vitro screen, SRB percent growth, Ovarian Cancer
M14 = assay: NCI in vitro screen, SRB percent growth, Melanoma
UO-31 = assay: NCI in vitro screen, SRB percent growth, Renal Cancer
UACC-62 = assay: NCI in vitro screen, SRB percent growth, Melanoma
A549/ATCC = assay: NCI in vitro screen, SRB percent growth, Non-Small Cell Lung Cancer
DLD-1 = assay: cells; conditions: Homo sapiens
ACHN = assay: NCI in vitro screen, SRB percent growth, Renal Cancer
XF 498 = assay: NCI in vitro screen, SRB percent growth, CNS Cancer
UACC-257 = assay: NCI in vitro screen, SRB percent growth, Melanoma
HCC-2998 = assay: cells; conditions: Homo sapiens
[1] = Log10 Concentration -4.0, 100 µM
[2] = Log10 Concentration -7.0, 0.1 µM
[3] = KM-20L2, read-out: Percent Growth
[4] = DLD-1, read-out: Percent Growth
[5] = HCC 2998, read-out: Percent Growth

Cc1ccc2[nH]c3c(C)c4c(c(C)c3c2c1)CN(C)C=C4 [Formula XI]
Percent Growth (OVCAR-8; [1]): -95%
Percent Growth (OVCAR-8; Log10 Concentration -5.0): -5%
Percent Growth (OVCAR-8; Log10 Concentration -6.0, 1 µM): 37%
Percent Growth (OVCAR-8; [2]): 81%
Percent Growth (OVCAR-8; Log10 Concentration -8.0): 89%
TGI (OVCAR-8; PG=0): 7.69 µM
GI50 (OVCAR-8; PG=+50): 0.516 µM
CC50 (OVCAR-8; read-out: LC-50, PG=-50): 31.8 µM
Percent Growth (MALME-3M; [1]): -86%
Percent Growth (MALME-3M; Log10 Concentration -5.0): -40%
Percent Growth (MALME-3M; Log10 Concentration -6.0, 1 µM): 78%
Percent Growth (MALME-3M; [2]): 115%
Percent Growth (MALME-3M; Log10 Concentration -8.0): 113%
TGI (MALME-3M; PG=0): 4.58 µM
GI50 (MALME-3M; PG=+50): 1.72 µM
CC50 (MALME-3M; read-out: LC-50, PG=-50): 16.4 µM
Percent Growth (RXF-631; [1]): -78%
Percent Growth (RXF-631; Log10 Concentration -5.0): -8%
Percent Growth (RXF-631; Log10 Concentration -6.0, 1 µM): 30%
Percent Growth (RXF-631; [2]): 74%
Percent Growth (RXF-631; Log10 Concentration -8.0): 95%
TGI (RXF-631; PG=0): 6.25 µM
GI50 (RXF-631; PG=+50): 0.352 µM
CC50 (RXF-631; read-out: LC-50, PG=-50): 39.5 µM
Percent Growth (CAKI-1; [1]): -89%
Percent Growth (CAKI-1; Log10 Concentration -6.0, 1 µM): 56%
Percent Growth (CAKI-1; [2]): 106%
Percent Growth (CAKI-1; Log10 Concentration -8.0): 116%
TGI (CAKI-1; PG=0): 5.89 µM
GI50 (CAKI-1; PG=+50): 1.21 µM
CC50 (CAKI-1; read-out: LC-50, PG=-50): 28.8 µM
GI50 (KM20L2; KM-20L2): 2.22 µM
CC50 (KM20L2; KM-20L2, read-out: LC-50): 38 µM
activity at 0.01 µM (KM20L2; [3]): 106%
activity at 0.1 µM (KM20L2; [3]): 95%
activity at 1 µM (KM20L2; [3]): 73%
activity at 10 µM (KM20L2; [3]): 7%
activity at 100 µM (KM20L2; [3]): -91%
IC (TGI) (KM20L2; KM-20L2, read-out: TGI): 11.7 µM
Percent Growth (K-562; [1]): 2%
Percent Growth (K-562; Log10 Concentration -5.0): 6%
Percent Growth (K-562; Log10 Concentration -6.0, 1 µM): 53%
Percent Growth (K-562; [2]): 83%
Percent Growth (K-562; Log10 Concentration -8.0): 95%
TGI (K-562; PG=0): > 100 µM
GI50 (K-562; PG=+50): 1.17 µM
CC50 (K-562; read-out: LC-50, PG=-50): > 100 µM
effect against many kinds of cancer (Human tumor cell lines): effective against many kinds of cancer
Percent Growth (OVCAR-5; [1]): -83%
Percent Growth (OVCAR-5; Log10 Concentration -5.0): 19%
Percent Growth (OVCAR-5; Log10 Concentration -6.0, 1 µM): 97%
Percent Growth (OVCAR-5; [2]): 113%
Percent Growth (OVCAR-5; Log10 Concentration -8.0): 108%
TGI (OVCAR-5; PG=0): 15.2 µM
GI50 (OVCAR-5; PG=+50): 3.99 µM
CC50 (OVCAR-5; read-out: LC-50, PG=-50): 47.4 µM
Percent Growth (M14; [1]): -93%
Percent Growth (M14; Log10 Concentration -5.0): 6%
Percent Growth (M14; Log10 Concentration -6.0, 1 µM): 103%
Percent Growth (M14; [2]): 94%
Percent Growth (M14; Log10 Concentration -8.0): 106%
TGI (M14; PG=0): 11.4 µM
GI50 (M14; PG=+50): 3.52 µM
CC50 (M14; read-out: LC-50, PG=-50): 36.8 µM
Percent Growth (UO-31; [1]): -94%
Percent Growth (UO-31; Log10 Concentration -5.0): 36%
Percent Growth (UO-31; Log10 Concentration -6.0, 1 µM): 72%
Percent Growth (UO-31; [2]): 76%
Percent Growth (UO-31; Log10 Concentration -8.0): 103%
TGI (UO-31; PG=0): 18.8 µM
GI50 (UO-31; PG=+50): 3.99 µM
CC50 (UO-31; read-out: LC-50, PG=-50): 45.7 µM
Percent Growth (UACC-62; [1]): -84%
Percent Growth (UACC-62; Log10 Concentration -5.0): -91%
Percent Growth (UACC-62; Log10 Concentration -6.0, 1 µM): 92%
Percent Growth (UACC-62; [2]): 100%
Percent Growth (UACC-62; Log10 Concentration -8.0): 106%
TGI (UACC-62; PG=0): 3.18 µM
GI50 (UACC-62; PG=+50): 1.69 µM
CC50 (UACC-62; read-out: LC-50, PG=-50): 5.99 µM
Percent Growth (A549/ATCC; [1]): -66%
Percent Growth (A549/ATCC; Log10 Concentration -5.0): -15%
Percent Growth (A549/ATCC; Log10 Concentration -6.0, 1 µM): 33%
Percent Growth (A549/ATCC; [2]): 86%
Percent Growth (A549/ATCC; Log10 Concentration -8.0): 96%
TGI (A549/ATCC; PG=0): 4.9 µM
GI50 (A549/ATCC; PG=+50): 0.469 µM
CC50 (A549/ATCC; read-out: LC-50, PG=-50): 48.5 µM
GI50 (DLD-1; DLD-1): 1.48 µM
CC50 (DLD-1; DLD-1, read-out: LC-50): 59 µM
activity at 0.01 µM (DLD-1; [4]): 102%
activity at 0.1 µM (DLD-1; [4]): 93%
activity at 1 µM (DLD-1; [4]): 58%
activity at 10 µM (DLD-1; [4]): 13%
activity at 100 µM (DLD-1; [4]): -69%
IC (TGI) (DLD-1; DLD-1, read-out: TGI): 14.5 µM
Percent Growth (ACHN; [1]): -92%
Percent Growth (ACHN; Log10 Concentration -5.0): 30%
Percent Growth (ACHN; Log10 Concentration -6.0, 1 µM): 81%
Percent Growth (ACHN; [2]): 96%
Percent Growth (ACHN; Log10 Concentration -8.0): 101%
TGI (ACHN; PG=0): 17.6 µM
GI50 (ACHN; PG=+50): 4.02 µM
CC50 (ACHN; read-out: LC-50, PG=-50): 45.1 µM
Percent Growth (XF 498; [1]): -57%
Percent Growth (XF 498; Log10 Concentration -5.0): -33%
Percent Growth (XF 498; Log10 Concentration -6.0, 1 µM): 46%
Percent Growth (XF 498; [2]): 98%
Percent Growth (XF 498; Log10 Concentration -8.0): 101%
TGI (XF 498; PG=0): 3.84 µM
GI50 (XF 498; PG=+50): 0.851 µM
CC50 (XF 498; read-out: LC-50, PG=-50): 50.4 µM
Percent Growth (UACC-257; [1]): -87%
Percent Growth (UACC-257; Log10 Concentration -5.0): -8%
Percent Growth (UACC-257; Log10 Concentration -6.0, 1 µM): 86%
Percent Growth (UACC-257; [2]): 90%
Percent Growth (UACC-257; Log10 Concentration -8.0): 97%
TGI (UACC-257; PG=0): 8.23 µM
GI50 (UACC-257; PG=+50): 2.43 µM
CC50 (UACC-257; read-out: LC-50, PG=-50): 34.3 µM
GI50 (HCC-2998; HCC 2998): 1.69 µM
CC50 (HCC-2998; HCC 2998, read-out: LC-50): 7.89 µM
activity at 0.01 µM (HCC-2998; [5]): 105%
activity at 0.1 µM (HCC-2998; [5]): 108%
activity at 1 µM (HCC-2998; [5]): 84%
activity at 10 µM (HCC-2998; [5]): -65%
activity at 100 µM (HCC-2998; [5]): -91%
IC (TGI) (HCC-2998; HCC 2998, read-out: TGI): 3.65 µM
